Values joined by “and” are separate entries in the source; they are usually repeats but may differ in a detail not shown here. Identical values can stand only once.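 Interpolation was linear, between the two tested concentrations surrounding the appropriate level; five concentrations were tested over 48 hours in 96-well plates. GI50 marks 50% less growth. TGI: concentration producing complete growth inhibition.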
Assays:
Assay in all cases: NCI-60 cell line screen, 48 h
KM20L2 colon = test system: KM20L2 colon
M19-MEL melanoma = test system: M19-MEL melanoma
LXFL 529 NSCLC = test system: LXFL 529 NSCLC
DMS 114 small cell lung = test system: DMS 114 small cell lung
DMS 273 small cell lung = test system: DMS 273 small cell lung
MDA-MB-231 breast = test system: MDA-MB-231 breast
NCI/ADR-RES ovarian = test system: NCI/ADR-RES ovarian
XF 498 CNS = test system: XF 498 CNS
MCF7 breast = test system: MCF7 breast
PC-3 prostate = test system: PC-3 prostate

`CCOC(=O)NC/C=C/CO` was tested, and the TGI (KM20L2 colon) was over 100 µM, the TGI (M19-MEL melanoma) was over 100 µM and the TGI (LXFL 529 NSCLC) was over 100 µM. For the same compound, the TGI (DMS 114 small cell lung) was over 100 µM and the TGI (DMS 273 small cell lung) was over 100 µM.

In the case of `O=C(/C=C/c1ccc(OCC(=O)N2CCN(c3ccccc3)CC2)cc1)c1ccccc1`, the TGI (KM20L2 colon) is reported as over 66 µM, the TGI (M19-MEL melanoma) is reported as over 100 µM and the TGI (LXFL 529 NSCLC) is reported as over 94.2 µM.

In the case of `COC(=O)/C(=C/c1ccc(OC)cc1)c1cc(OC)c(OC)c(OC)c1`, the TGI (MDA-MB-231 breast) is reported as over 100 µM, the TGI (NCI/ADR-RES ovarian) is reported as over 100 µM and the TGI (M19-MEL melanoma) is reported as over 100 µM. The TGI (XF 498 CNS) was 83.7 µM, the TGI (MCF7 breast) was over 100 µM and the TGI (LXFL 529 NSCLC) was over 100 µM. For the same compound, the TGI (PC-3 prostate) was over 100 µM, the TGI (DMS 114 small cell lung) was over 23.3 µM and the TGI (DMS 273 small cell lung) was over 100 µM.

`Cc1c2cc[n+](C)cc2c(C)c2c1[nH]c1ccc(Oc3ccccc3)cc12` was tested, and the TGI (KM20L2 colon) was 23 µM and > 52.3 µM, the GI50 (M19-MEL melanoma) was 2.56 µM and 3.23 µM and the TGI (M19-MEL melanoma) was 24.5 µM and > 100 µM. The TGI (LXFL 529 NSCLC) was 6.13 µM and 6.82 µM, the GI50 (DMS 273 small cell lung) was 1.15 µM and the TGI (DMS 273 small cell lung) was over 100 µM.

Work on `COc1cccc(OC)c1/C=N\N1C(=O)c2ccccc2C1=O` yielded a TGI (KM20L2 colon) of 37.4 µM, a TGI (M19-MEL melanoma) of over 100 µM and a TGI (XF 498 CNS) of 86.4 µM. It also gave a TGI (LXFL 529 NSCLC) of over 100 µM, a TGI (DMS 114 small cell lung) of 91 µM and a TGI (DMS 273 small cell lung) of 84.6 µM.

With `CN1C/C(=C\c2ccco2)c2nc(N)nc(-c3ccco3)c2C1` the TGI (KM20L2 colon) was over 100 µM, the TGI (M19-MEL melanoma) was over 100 µM and the TGI (XF 498 CNS) was 90.2 µM. For the same compound, the TGI (LXFL 529 NSCLC) was over 100 µM, the TGI (DMS 114 small cell lung) was over 100 µM and the TGI (DMS 273 small cell lung) was over 100 µM.

For `O=C1NC2(CCCCC2)C2=C1CCCCC2`, the TGI (M19-MEL melanoma) was over 100 µM, the TGI (XF 498 CNS) was over 100 µM and the TGI (LXFL 529 NSCLC) was over 100 µM. For the same compound, the TGI (DMS 114 small cell lung) was over 100 µM and the TGI (DMS 273 small cell lung) was over 100 µM.

`COC(=O)C1=C(C)N(NC(=O)Nc2ccccc2)C2(N)N(NC(=O)Nc3ccccc3)C(C)=C(C(=O)OC)C12C(=O)OC` (centres undefined) showed a TGI (KM20L2 colon) of over 100 µM, a TGI (M19-MEL melanoma) of 78.7 µM and a TGI (LXFL 529 NSCLC) of over 100 µM. For the same compound, the TGI (DMS 114 small cell lung) was over 100 µM and the TGI (DMS 273 small cell lung) was over 100 µM.

For `CCCCCCCCCCCCCCCC(=O)NCC(OCC)OCC`, the TGI (KM20L2 colon) was over 100 µM, the TGI (M19-MEL melanoma) was over 100 µM and the TGI (XF 498 CNS) was over 100 µM. The TGI (LXFL 529 NSCLC) was over 100 µM, the TGI (DMS 114 small cell lung) was over 100 µM and the TGI (DMS 273 small cell lung) was over 100 µM.

Compound `Cc1c(C(=O)C/C(=N/NC(=O)CC#N)C(N)=O)[n+](=O)c2ccccc2n1[O-]` has a TGI (KM20L2 colon) of over 100 µM, a TGI (M19-MEL melanoma) of 50.7 µM and a TGI (XF 498 CNS) of over 100 µM. For the same compound, the TGI (LXFL 529 NSCLC) was over 100 µM, the TGI (DMS 114 small cell lung) was 57.8 µM and the TGI (DMS 273 small cell lung) was over 100 µM.

`O=C1COc2cc3c(cc2N1)SCC(=O)N3` showed a TGI (M19-MEL melanoma) of over 100 µM, a TGI (XF 498 CNS) of over 100 µM and a TGI (LXFL 529 NSCLC) of over 100 µM. The TGI (DMS 114 small cell lung) was over 100 µM and the TGI (DMS 273 small cell lung) was over 100 µM.

In the case of `CC1=C2[C@@H](c3ccccc3)C3C=CC2(C=C3C(F)(F)F)N(C(=O)NC2CCCCC2)C1=O` (some centres undefined), the TGI (KM20L2 colon) is reported as over 100 µM, the TGI (M19-MEL melanoma) is reported as over 100 µM and the TGI (XF 498 CNS) is reported as over 100 µM. The TGI (LXFL 529 NSCLC) was over 100 µM, the TGI (DMS 114 small cell lung) was over 100 µM and the TGI (DMS 273 small cell lung) was over 100 µM.

`CC(=O)OCc1cc2c(s1)C(=O)c1sccc1C2=O` showed a TGI (KM20L2 colon) of 5.49 µM, a TGI (MDA-MB-231 breast) of 0.692 µM and a TGI (NCI/ADR-RES ovarian) of 0.413 µM. It also gave a TGI (MCF7 breast) of 0.416 µM, a TGI (LXFL 529 NSCLC) of 1 µM and a TGI (PC-3 prostate) of 0.563 µM. The TGI (DMS 114 small cell lung) was 0.283 µM and the TGI (DMS 273 small cell lung) was 0.299 µM.

`CCOC(=O)c1c(/C=N\Nc2ccccc2)nc2ccccc2c1-c1ccccc1` gave a TGI (KM20L2 colon) of over 100 µM, a TGI (M19-MEL melanoma) of 60.7 µM and a TGI (LXFL 529 NSCLC) of over 100 µM. It also gave a TGI (DMS 114 small cell lung) of 98.1 µM and a TGI (DMS 273 small cell lung) of over 100 µM.

Compound `Nc1nc(N)c(-c2ccccc2)c(C(=O)Nc2nccs2)n1` has a TGI (KM20L2 colon) of over 100 µM, a TGI (M19-MEL melanoma) of over 100 µM and a TGI (LXFL 529 NSCLC) of over 100 µM. For the same compound, the TGI (DMS 114 small cell lung) was over 100 µM.

`Cc1cc2c(=O)cc(-c3ccncc3)oc2c(C(=O)O)c1C` was tested, and the TGI (KM20L2 colon) was over 100 µM, the TGI (M19-MEL melanoma) was over 100 µM and the TGI (XF 498 CNS) was over 100 µM. For the same compound, the TGI (LXFL 529 NSCLC) was over 100 µM and the TGI (DMS 273 small cell lung) was over 100 µM.

`O=C(O)C12C3C4C1C1C2C3C41I` (centres undefined) gave a TGI (KM20L2 colon) of over 100 µM, a TGI (M19-MEL melanoma) of over 100 µM and a TGI (XF 498 CNS) of over 100 µM. The TGI (LXFL 529 NSCLC) was over 100 µM, the TGI (DMS 114 small cell lung) was over 100 µM and the TGI (DMS 273 small cell lung) was over 100 µM.

For `COC(=O)CCSC(=O)Nc1ccccc1Cl`, the TGI (KM20L2 colon) was over 100 µM, the TGI (LXFL 529 NSCLC) was over 100 µM and the TGI (DMS 114 small cell lung) was over 100 µM. For the same compound, the TGI (DMS 273 small cell lung) was over 100 µM.

`O=C(CO[N+](=O)[O-])OCC(=O)c1ccccc1` was tested, and the TGI (KM20L2 colon) was over 100 µM, the TGI (M19-MEL melanoma) was over 100 µM and the TGI (LXFL 529 NSCLC) was over 100 µM. It also gave a TGI (DMS 273 small cell lung) of over 100 µM.

`CC(C)=NO.CC(C)=NO.CC(C)=NO.CC(C)=NO.[Ti]` was tested, and the GI50 (M19-MEL melanoma) was over 100 µM, the TGI (M19-MEL melanoma) was over 100 µM and the GI50 (XF 498 CNS) was over 100 µM. The TGI (XF 498 CNS) was over 100 µM, the GI50 (LXFL 529 NSCLC) was over 100 µM and the TGI (LXFL 529 NSCLC) was over 100 µM. For the same compound, the GI50 (DMS 114 small cell lung) was over 100 µM, the TGI (DMS 114 small cell lung) was over 100 µM and the GI50 (DMS 273 small cell lung) was over 100 µM. It also gave a TGI (DMS 273 small cell lung) of over 100 µM.
